The values that follow come from US6096909A, “Taxoid anti-tumor agents and pharmaceutical compositions thereof” (The Research Foundation of State University of New York, priority 1997, dated 2000).

Each structure is given as a SMILES string. Like-named read-outs stand apart in the source and are kept apart here.

One data set deals with HT-29 (colon carcinoma). In words: Tumor cell growth inhibition (SRB), 72 h. It counts as cell-based. As to conditions: Homo sapiens, read-out: concentration of compound which inhibit 50% (IC50) of the growth of human tumor cell line.
For data set [1] the following is noted: recent report on clinical trials; cited from earlier work.
Data set [2] relates to MCF7-R (mammary carcinoma cells 180-fold resistant to adriamycin). In words: Tumor cell growth inhibition (SRB), 72 h. It is filed as cell-based, human. The note with it: for IC50: Homo sapiens, MCF7R, read-out: concentration of compound which inhibit 50% (IC50) of the growth of human tumor cell line.
The subject of another data set is A121 (ovarian carcinoma). Kind of data set: Tumor cell growth inhibition (SRB), 72 h. As to conditions: Homo sapiens, read-out: concentration of compound which inhibit 50% (IC50) of the growth of human tumor cell line. It is filed as cell-based.
In data set [3] the test system is drug-resistant tumors, e.g., adriamycin-resistant breast cancer. The note with it: cited from earlier work.
The subject of another data set is MCF7 (mammary carcinoma). In words: Tumor cell growth inhibition (SRB), 72 h. As to conditions: Homo sapiens, read-out: concentration of compound which inhibit 50% (IC50) of the growth of human tumor cell line. It counts as cell-based.
In data set [4] the test system is A121 human ovarian, A549 human non-small cell lung, HT-29 human colon and MCF7 human breast cancer cells. In words: Cytotoxicity against human cancer cell panel, stated jointly for the four lines.
For data set [5], the system named is A549 (non-small cell lung carcinoma). Kind of data set: Tumor cell growth inhibition (SRB), 72 h. It is filed as cell-based. The note with it: Homo sapiens, read-out: concentration of compound which inhibit 50% (IC50) of the growth of human tumor cell line.
In data set [6] the test system is human colon carcinoma cells HCT-116. As to conditions: cited from earlier work.
For data set [7] the following is noted: relative to paclitaxel; cited from earlier work.
For data set [8] the following is noted: relative to paclitaxel; cited from earlier work. This is another data set of the same source.
Another data set has as its system breast and lung cancers. The note with it: United States, Europe, and Japan; cited from earlier work.
[9] abbreviates: HT-29 (colon), 72 h drug exposure, mean of at least three experiments.
Where [10] appears, read: A549 (NSCLC), 72 h drug exposure, mean of at least three experiments.
[11] abbreviates: A121 (ovarian), 72 h drug exposure, mean of at least three experiments.
[12] abbreviates: MCF7 (breast), 72 h drug exposure, mean of at least three experiments.

Take `CC(=O)O[C@H]1C(=O)[C@@]2(C)[C@H]([C@H](OC(=O)c3ccccc3)[C@]3(O)C[C@H](OC(=O)[C@H](O)[C@@H](NC(=O)c4ccccc4)c4ccccc4)C(C)=C1C3(C)C)[C@]1(OC(C)=O)CO[C@@H]1C[C@@H]2O` [Paclitaxel]: the IC50 in the data set on HT-29 (colon carcinoma) (HT-29, 72 h) was found to be 3.2 nM; in [2] (72 h), 300 nM; in the data set with A121 (ovarian carcinoma) (A121, 72 h), 6.1 nM; in the data set on MCF7 (mammary carcinoma) (MCF7, 72 h) it was 1.7 nM. In addition, the “side effects in clinical trials” value in data set [1] is “nerve damage, muscle pain or disturbances in heart rhythm”. For the same molecule, the “activity against drug-resistant tumors” value in data set [3] is reported as “only a weak activity”.
In the case of `CC(=O)O[C@@]12CO[C@@H]1C[C@H](O)[C@@]1(C)C(=O)[C@H](O)C3=C(C)[C@@H](OC(=O)[C@H](O)[C@H](CC(C)(C)C)NC(=O)OC(C)(C)C)C[C@@](O)([C@@H](OC(=O)c4ccccc4)[C@H]21)C3(C)C` [3'-dephenyl-3'-neopentyldocetaxel], in [4] (in words), the cytotoxicity entry was “virtually not cytotoxic”.
Consider `CC=C[C@H](NC(=O)OC(C)(C)C)[C@@H](O)C(=O)O[C@H]1C[C@@]2(O)[C@@H](OC(=O)c3ccccc3)[C@@H]3[C@]4(OC(C)=O)CO[C@@H]4C[C@H](O)[C@@]3(C)C(=O)[C@H](OC(C)=O)C(=C1C)C2(C)C` [Taxoid Ia], for which the IC50 in the data set with HT-29 (colon carcinoma) (setting [9]) came to 0.76 nM; in [2] (MCF7-R, 72 h drug exposure, mean of at least three experiments) it was 14 nM; in data set [5] (setting [10]), 0.54 nM; in the data set on A121 (ovarian carcinoma) (setting [11]) it was 0.9 nM; in the data set with MCF7 (mammary carcinoma) (setting [12]), 0.51 nM. For the same molecule, the “times better activity than docetaxel” value in data set [2] (MCF7-R, relative to docetaxel) was 17 times. Moreover, the “times better activity than paclitaxel” value in [2] (MCF7-R, relative to paclitaxel) was 21 times. Further, the “activity spectrum compared with paclitaxel and docetaxel” value in data set [4] (relative to paclitaxel and docetaxel) was “considerably better activity spectrum”.
In data set [4] (fold decrease), `CC(=O)O[C@@]12CO[C@@H]1C[C@H](O)[C@@]1(C)C(=O)[C@H](O)C3=C(C)[C@@H](OC(=O)[C@H](O)[C@H](C=Cc4ccccc4)NC(=O)OC(C)(C)C)C[C@@](O)([C@@H](OC(=O)c4ccccc4)[C@H]21)C3(C)C` [3'-dephenyl-3'-(2-phenylethenyl)docetaxel] had a decreased cytotoxicity greater than 20 times.
As to `CC(=O)O[C@H]1C(=O)[C@@]2(C)[C@H]([C@H](OC(=O)c3ccccc3)[C@]3(O)C[C@H](OC(=O)[C@H](O)[C@H](C=C(C)C)NC(=O)c4ccccc4)C(C)=C1C3(C)C)[C@]1(OC(C)=O)CO[C@@H]1C[C@@H]2O` [RAH-1, 3'-dephenyl-3'-isobutenylpaclitaxel], the IC50 in the data set on HT-29 (colon carcinoma) (HT-29, 72 h) was 0.96 nM; in data set [5] (A549, 72 h), 0.45 nM; in the data set with A121 (ovarian carcinoma) (A121, 72 h) it was 1.4 nM; in the data set on MCF7 (mammary carcinoma) (MCF7, 72 h), 0.54 nM. Further, the “times better activity than docetaxel” value in data set [6] (relative to docetaxel) was 7 times. Also, the “times better activity than paclitaxel” value in data set [6] (relative to paclitaxel) is recorded as 4 times.
For the molecule `CC(=O)O[C@@]12CO[C@@H]1C[C@H](O)[C@@]1(C)C(=O)[C@H](O)C3=C(C)[C@@H](OC(=O)[C@H](O)[C@@H](NC(=O)OC(C)(C)C)c4ccccc4)C[C@@](O)([C@@H](OC(=O)c4ccccc4)[C@H]21)C3(C)C` [Docetaxel], the IC50 in the data set with HT-29 (colon carcinoma) (setting [9]) came to 1.2 nM; in [5] (setting [10]) it was 1 nM; in the data set on A121 (ovarian carcinoma) (setting [11]), 1.2 nM; in the data set on MCF7 (mammary carcinoma) (setting [12]), 1 nM. Further, the “side effects in clinical trials” value in data set [1] is “mouth sores and plunge in white blood cells”. Also, the “antitumor activity compared with paclitaxel” value in [7] is “superior to paclitaxel”. Moreover, the “bioavailability compared with paclitaxel” value in data set [8] is recorded as “better bioavailability”. In addition, the “activity against drug-resistant tumors” value in [3] is listed as “only a weak activity”. Further, in the data set with breast and lung cancers, the “activity in phase II and III clinical trials” value is “excellent activities, especially against breast and lung cancers”.
